Laboratory results taken from patent US10648917B2, “Luminescent compositions and applications thereof” (THE PENN STATE RESEARCH FOUNDATION, priority 2015, dated 2020).
“Also recorded” adds a separate entry of the source.

Tests used:
[1] = Photostability under continuous excitation for 3 hours; format: physicochemical; conditions: for photobleaching relative to Fluorescein and Rhodamine B: 3 hours continuous excitation
Protocol: Fluorescence spectra were recorded by a Horiba FluoroMax-4 spectrofluorometer. All samples were measured at a concentration corresponding to an optical density of 0.1 in water and a slit size of 1 nm by 1 nm unless specified. Quantum yields were also determined on same spectrofluorometer by using a Quantum-φ integration sphere at samples' maximum excitation wavelength and at an increment of 0.3 nm. Photostability studies were done by continuously exciting samples at their maximum excitation wavelength and monitoring at the maximum emission wavelength.
Fluorescence spectra were recorded on a Horiba FluoroMax-4 spectrofluorometer (Horiba Scientific, Edison N.J.). All polymer and samples were characterized at a concentration of 2 wt % in 1,4-dioxane and a slit size of 1 nm by 1 nm unless otherwise specified. The fluorescence properties of small molecule dyes were also measure in 2 wt % DI water solutions at same conditions as polymer solutions. BPLPs were also degraded in 1M K2CO3 solution at 37° C. for 24 hours and then neutralized with 1N HCl solution to pH7. The resulting degradation solutions were subject to further PL characterizations. Quantum yields were also determined on the same spectrofluorometer by using a Quantum-φ integration sphere (Horiba Scientific, Edison N.J.) at the same concentration and slit size with the blank solvent as the reference. Photostability of small molecules and polymers were determined by monitoring the emission intensity decay at their max. Excitation and emission wavelengths over 3 hours of continuous lumination in the spectrofluorometer.
Photostability of CFDs was characterized thereafter, since traditional organic dyes suffer from photobleaching. Various CFDs were tested under their maximum excitation and emission wavelengths for 3 hours, and the photoluminescence was normalized to the initial intensity.

[2] = Acid-base titration with NaOH (pKa, protolytic states); format: physicochemical
Protocol: The pKa values of CA-Cys were determined through acid-base titration with NaOH. Titration curves support the presence of two carboxyl groups with close pKa values for two reasons. The molar mass of CA-Cys, 241 g/mol as determined by LC-ESI-MS, matches the molar mass value of 245.6 g/mol determined by titration only when assuming a diprotic acid. Moreover, the long buffered region of the titration curve supports the presence of two carboxyl groups with close pKas that are overlapping the first inflection point, estimated to be at ½ NaOH volume of the end point.
Based on the pKa values determined from 2.4, a theoretical protolytic equilibria was established based on equations 1-3 below: […]

[3] = Chlorine sensing by fluorescence titration; format: physicochemical
Description: This chlorine detection method seems to be much more sensitive than for halide detection, as chlorine in tap water diluted 1:2 can be measured. Furthermore, because measurement is based on the titration point, the presence of halides in solution would only lower the slope of the fluorescence plots without affecting the titration point. In reverse order of what observed results for halide quenching, sensing of bromine is much less sensitive than chlorine. Visual confirmation of the titration point is possible with a UV lamp, allowing for a low-cost and low-tech method of chlorine determination. It should also be noted that by varying the use of amine-containing molecules used in the syntheses of fluorophores described herein, it was possible to tune the chloride sensing at neutral pH.

[4] = Halide fluorescence quenching (Stern-Volmer); format: physicochemical
Protocol: Absorbance Spectra were recorded on Tecan Infinite M200 Pro UV-vis spectroscopy, and fluorescence spectra were recorded on Horiba FluoroMax-4 fluorospectroscopy at concentrations below 0.1 O.D. unless otherwise indicated. Quantum Yields were measured on the Quantum φ Integrating Sphere accessory to the FluoroMax-4, while lifetime measurements were determined through the Time-Correlation Single Photon Counting (TCSPC) accessory to the FluroMax-4. TCSPC was utilized in conjunction with NanoLED pulsed diode light source with peak excitation wavelength at 352 nm and at 10,000 counts peak preset. Emission was collected at the fluorescence λmax, unless otherwise indicated. For all pH-dependence experiments, sample pH was adjusted with sulfuric acid or sodium hydroxide. For all chloride-dependent quenching experiments, magnesium chloride hexahydrate (Sigma Aldrich) was used.
When a fluorophore of [F] absorbs light energy, excitation raises a sub-population of [F] to the excited state, [F*], which then rapidly lose energy along radiative relaxation (kr) or non-radiative relaxation (knr) according to equation 7. If a quencher forms a complex with the excited fluorophore, an extra non-radiative component, kq, is added to equation 7 to account for the additional relaxation pathway that is a function of quencher concentration and its association constant.
[formula] Thus the quenching of fluorescence can be quantitatively analyzed by comparing the affected lifetimes. The Stern-Volmer (SV) relationship is used to determine kq, the bimolecular quenching rate constant for the diffusion coefficients of the fluorophore and quencher, by deriving a plot of τ0/τ versus [Q]:
[formula] Thus the linear slope of the SV plot, KSV, measures the efficiency of the quencher. Since sulfuric acid was used to study proton-induced quenching, the pH value was a better indicator of [H^+] due to incomplete dissociation of sulfuric acid at high concentrations. In the case of multiple quenchers, as will be discussed in this paper, equation 7 must include additional kq terms that result in modified form of equation 12 below:
[formula] If the two quenchers are act independently, the quencher of known quenching rate and concentration can be combined into the Y-intercept term in order to determine the quenching rate of the second, unknown quencher. […]
To translate halide quenching into quantitative sensing applications, a modified Stern-Volmer equation (Equation 14) was used to linearize the effects of two quenchers, protons and the halide being studied, on the fluorescence of CA-Cysteine. […]
Since the measured sample fluorescence is quenched by both protons and halides, the unquenched fluorescence, Io, was defined as the fluorescence of the neutral state CA-Cysteine in the absence of additional proton or halide quenchers. As mentioned above, the effects of protolytic equilibria stabilize around pH 2.2, where CA-Cysteine undergoes 99% conversion from the dianion state and is marked by constant fluorescence intensities (FIG. 13). […] Thus we chose the fluorescence intensity at pH 2.2 (in the absence of halides) as the unquenched reference signal, Io. IH,Cl in equation 23 is the sample fluorescence at the pH and halide concentration indicated. […]

[5] = test system: 3T3 cells; assay: Fluorescence cell labelling, confocal microscopy; format: cell-based, mouse; conditions: 500 μg/ml for 24 hours; DAPI, FITC, Cy3 channels

Row | pKa1 (3-carboxyl group) [2] | pKa2 (7-carboxyl group) [2] | Exists at pH ([2]; Anion protolytic state) | Exists at pH ([2]; Dianion protolytic state) | Exists at pH ([2]; Neutral protolytic state) | sensitivity to chlorine [3] | fluorescence quenching by magnesium chloride ([4]; pH 8.2) | fluorescence quenching by magnesium chloride ([4]; strongly acidic conditions (pH 2.4)) | photostability ([1]; FIG. 19) | luminescence lost ([1]; after 3 hours continuous excitation) | fluorescence remaining ([1]; after continuous UV excitation for 3 hours) | Compound | photobleaching relative to Fluorescein and Rhodamine B [1] | fluorescence quenching by magnesium sulfate and sodium sulfate [4] | fluorescence quenching by bromide and iodide ([4]; compared with chloride) | fluorescence from cells after uptake [5]
1 | – | – | – | – | – | – | – | – | – | – | – | CC(C(=O)O)N1C(=O)C=C(C(=O)O)CC1=O (stereo not shown) [CA-Ala] | photobleaching on par with Fluorescein but more resistant than Rhodamine B | – | – | –
2 | 2.345 | 3.41 | 2.35~3.41 | >3.41 | <2.35 | sensitive to chlorine | no significant quenching | quenched | strong photostability | less than 3% | 95% | O=C(O)c1cc2n(c(=O)c1)C(C(=O)O)CS2 (stereo not shown) [CA-Cys] | less stable | did not quench fluorescence under any conditions | quenched by bromide and iodide at even greater affinities | Strong fluorescence was observed; also recorded: strong DAPI-channel fluorescence
